From ChEMBL document CHEMBL1201862, “PubChem BioAssay data set” (2004) come the findings set out here.

Structures are written as SMILES.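 Method: 48-hour compound exposure of cells in 96-well plates, five concentrations, linear interpolation of endpoints. The concentration for 50% growth inhibition is given as GI50.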 The source made the active and inactive calls. Cut-off read from the data, not from the text of the source: active = GI50 up to about 1.1 µM and inactive = higher.

Test systems include MDA-MB-231; OVCAR-8; UACC-62; M14; BT-549; OVCAR-3; SF-539; ACHN; Hs-578T; UO-31; RPMI-8226; U-251; UACC-257; OVCAR-5; SK-MEL-28; Malme-3M.
Common to all, as to experiment: DTP human tumour cell line panel, 48 h

Regarding `Oc1ccc(/C=N/N=c2\[nH][nH]/c(=N\N=C\c3ccc(O)cc3O)c3ccccc23)c(O)c1`, the GI50 in the assay on MDA-MB-231 was 0.401 µM (active); in the assay with OVCAR-8, 0.25 µM (active); in the assay with UACC-62, 0.234 µM (active); in the assay with M14, 0.318 µM (active); in the assay on BT-549, 0.21 µM (active); in the assay on OVCAR-3, 0.185 µM (active). In addition, the GI50 with SF-539 was 0.294 µM (active); in the assay on ACHN, 0.21 µM (active); in the assay with Hs-578T it was 0.29 µM (active); with UO-31 it was 0.388 µM (active); with RPMI-8226, 0.3 µM (active); in the assay on U-251, 0.2 µM (active). In addition, the GI50 is 0.428 µM (active) in the assay with UACC-257 and 0.422 µM (active) with OVCAR-5.
Take `CC1(C)CC(=O)c2c(nc3ccc4ccccc4c3c2-c2ccc(NC(=O)CCCC(=O)Nc3ccc(-c4c5c(nc6ccc7ccccc7c46)CC(C)(C)CC5=O)cc3)cc2)C1`: the GI50 in the assay on MDA-MB-231, in the assay on OVCAR-8, in the assay with UACC-62, in the assay on M14, in the assay on BT-549 and in the assay with OVCAR-3 was > 100 µM (inactive) each time. The GI50 is > 100 µM (inactive) in the assay with SF-539; > 100 µM (inactive) in the assay with ACHN; 60.3 µM (inactive) in the assay with Hs-578T; > 100 µM (inactive) in the assay with UO-31; > 100 µM (inactive) in the assay with RPMI-8226; > 100 µM (inactive) in the assay on SK-MEL-28. Also, the GI50 in the assay on U-251, in the assay on UACC-257 and in the assay with OVCAR-5 was > 100 µM (inactive) in each case.
For `Brc1ccc(/N=N/N2CCCCC2)cc1`, the GI50 was > 100 µM (inactive) with MDA-MB-231; 45.6 µM (inactive) with OVCAR-8; 72.9 µM (inactive) in the assay with UACC-62; 85.9 µM (inactive) in the assay with M14; 98.2 µM (inactive) in the assay on BT-549; 42.1 µM (inactive) in the assay on OVCAR-3. Besides, the GI50 with SF-539 is > 100 µM (inactive); with ACHN it was 76.6 µM (inactive); in the assay with Hs-578T, 65.5 µM (inactive); in the assay on UO-31, 60 µM (inactive); with RPMI-8226, 14.1 µM (inactive); in the assay with U-251, 54 µM (inactive). Also, the GI50 in the assay with UACC-257 is 49.3 µM (inactive); with OVCAR-5, 80.7 µM (inactive).
Turning to `CC(=O)OCC1(CNc2nc(N)ncc2C#N)CC(CCc2ccccc2)C1` (stereo unspecified), the GI50 was > 100 µM (inactive) with Malme-3M; 10.4 µM (inactive) with MDA-MB-231; 50.2 µM (inactive) with OVCAR-8; 46 µM (inactive) in the assay on UACC-62; 87.1 µM (inactive) in the assay with BT-549; > 100 µM (inactive) in the assay with SF-539. For the same molecule, the GI50 in the assay on ACHN was 28.4 µM (inactive); with Hs-578T it was 23.9 µM (inactive); with UO-31 it was 10.7 µM (inactive); in the assay on SK-MEL-28, > 100 µM (inactive); in the assay with U-251, 31.3 µM (inactive); with UACC-257, > 100 µM (inactive). In addition, the GI50 in the assay with OVCAR-5 is > 100 µM (inactive).
Turning to `CC(Cc1ccc(Cl)cc1Cl)NO` (stereo unspecified), the GI50 in the assay with Malme-3M, with MDA-MB-231, in the assay on OVCAR-8, in the assay with UACC-62, in the assay with M14 and in the assay on BT-549 was > 100 µM (inactive) in each case. For the same molecule, the GI50 in the assay with OVCAR-3 was > 100 µM (inactive); in the assay with ACHN, > 100 µM (inactive); in the assay on Hs-578T it was 80 µM (inactive); in the assay with UO-31 it was > 100 µM (inactive); with RPMI-8226, 78 µM (inactive); in the assay on SK-MEL-28, > 100 µM (inactive). Further, the GI50 with U-251, with UACC-257 and with OVCAR-5 was > 100 µM (inactive) throughout.

As usually defined, the GI50 is the concentration at which growth is held to half of that of the control.
